Test results published in PubChem BioAssay AID2060486 (Molecular Pharmacology Branch, DTP, NCI, 2025).

System: IGROV1 complex spheroids (HUVEC, MSC), viability % test/control
Test: Anticancer human tumor IGROV1 cell line growth inhibition [GQUAD];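 note: spheroids exposed to compounds for 7 days before readout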;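 for viability, T/C: 100% = DMSO vehicle control viability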
Conditions: for IC50: curve of first compound; for viability, T/C: stronger effect = lower value
How it was run: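 Viability of tumor cells grown as complex spheroids with endothelial and stromal cells, exposed to drug combinations. Top concentration at or near clinical Cmax (else 10 microM), diluted in half-log increments.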

[1] = second compound 0.0316 µM, first compound 0.0316 µM
[2] = second compound 0.0316 µM, first compound 0.316 µM
[3] = second compound 0.1 µM, first compound 0.0316 µM
[4] = second compound 0.1 µM, first compound 0.316 µM
[5] = second compound 0.316 µM, first compound 0.0316 µM
[6] = second compound 0.316 µM, first compound 0.316 µM
[7] = second compound 1 µM, first compound 0.0316 µM
[8] = second compound 1 µM, first compound 0.316 µM
[9] = second compound 3.16 µM, first compound 0.0316 µM
[10] = second compound 3.16 µM, first compound 0.316 µM
[11] = second compound 10 µM, first compound 0.0316 µM
[12] = second compound 10 µM, first compound 0.316 µM
[13] = second compound 0.0316 µM, first compound 0.1 µM
[14] = second compound 0.0316 µM, first compound 1 µM
[15] = second compound 0.0316 µM, first compound 3.16 µM
[16] = second compound 0.0316 µM, first compound 10 µM
[17] = second compound 0.1 µM, first compound 0.1 µM
[18] = second compound 0.1 µM, first compound 1 µM
[19] = second compound 0.1 µM, first compound 3.16 µM
[20] = second compound 0.1 µM, first compound 10 µM
[21] = second compound 0.316 µM, first compound 0.1 µM
[22] = second compound 0.316 µM, first compound 1 µM
[23] = second compound 0.316 µM, first compound 3.16 µM
[24] = second compound 0.316 µM, first compound 10 µM
[25] = second compound 1 µM, first compound 0.1 µM
[26] = second compound 1 µM, first compound 1 µM
[27] = second compound 1 µM, first compound 3.16 µM
[28] = second compound 1 µM, first compound 10 µM
[29] = second compound 3.16 µM, first compound 0.1 µM
[30] = second compound 3.16 µM, first compound 1 µM
[31] = second compound 3.16 µM, first compound 3.16 µM
[32] = second compound 3.16 µM, first compound 10 µM
[33] = second compound 10 µM, first compound 0.1 µM
[34] = second compound 10 µM, first compound 1 µM
[35] = second compound 10 µM, first compound 3.16 µM
[36] = second compound 10 µM, first compound 10 µM

Structure (SMILES): CCc1c2c(nc3ccc(O)cc13)-c1cc3c(c(=O)n1C2)COC(=O)[C@]3(O)CC + Cc1cnc(CNC(=O)c2c(=O)c3ccc(N4CCCN(C)CC4)nc3n3c2sc2ccccc23)cn1
- IC50 (second compound 0.0316 µM): < 0.000999 µM
- IC50 (second compound 0.1 µM): < 0.000999 µM
- IC50 (second compound 0.316 µM): < 0.000999 µM
- IC50 (second compound 1 µM): < 0.000999 µM
- IC50 (second compound 3.16 µM): < 0.000999 µM
- IC50 (second compound 10 µM): < 0.000999 µM
- viability, T/C (second compound 0.0316 µM, first compound 0.000999 µM): 31.5%
- viability, T/C (second compound 0.0316 µM, first compound 0.00316 µM): 13.3%
- viability, T/C (second compound 0.0316 µM, first compound 0.00999 µM): 9.95%
- viability, T/C [1]: 8.54%
- viability, T/C (second compound 0.0316 µM, first compound 0.0999 µM): 4.31%
- viability, T/C [2]: 1.99%
- viability, T/C (second compound 0.1 µM, first compound 0.000999 µM): 17.2%
- viability, T/C (second compound 0.1 µM, first compound 0.00316 µM): 8.8%
- viability, T/C (second compound 0.1 µM, first compound 0.00999 µM): 9.75%
- viability, T/C [3]: 7.73%
- viability, T/C (second compound 0.1 µM, first compound 0.0999 µM): 4.92%
- viability, T/C [4]: 2.18%
- viability, T/C (second compound 0.316 µM, first compound 0.000999 µM): 14.4%
- viability, T/C (second compound 0.316 µM, first compound 0.00316 µM): 10.9%
- viability, T/C (second compound 0.316 µM, first compound 0.00999 µM): 8.79%
- viability, T/C [5]: 6.94%
- viability, T/C (second compound 0.316 µM, first compound 0.0999 µM): 6.74%
- viability, T/C [6]: 2.05%
- viability, T/C (second compound 1 µM, first compound 0.000999 µM): 10.6%
- viability, T/C (second compound 1 µM, first compound 0.00316 µM): 10.6%
- viability, T/C (second compound 1 µM, first compound 0.00999 µM): 9.03%
- viability, T/C [7]: 9.75%
- viability, T/C (second compound 1 µM, first compound 0.0999 µM): 5.59%
- viability, T/C [8]: 1.55%
- viability, T/C (second compound 3.16 µM, first compound 0.000999 µM): 11.3%
- viability, T/C (second compound 3.16 µM, first compound 0.00316 µM): 7%
- viability, T/C (second compound 3.16 µM, first compound 0.00999 µM): 6.92%
- viability, T/C [9]: 5.6%
- viability, T/C (second compound 3.16 µM, first compound 0.0999 µM): 3.86%
- viability, T/C [10]: 0.83%
- viability, T/C (second compound 10 µM, first compound 0.000999 µM): 7.27%
- viability, T/C (second compound 10 µM, first compound 0.00316 µM): 8.08%
- viability, T/C (second compound 10 µM, first compound 0.00999 µM): 7.06%
- viability, T/C [11]: 6.04%
- viability, T/C (second compound 10 µM, first compound 0.0999 µM): 3.78%
- viability, T/C [12]: 0.4%

Structure (SMILES): C#Cc1c(F)ccc2cc(O)cc(-c3ncc4c(N5CC6CCC(C5)N6)nc(OCC56CCCN5CC(F)C6)nc4c3F)c12 (stereo unspecified) + Cc1[nH]c2ccc(F)cc2c1-c1nc2c3cccnc3c3ncccc3c2[nH]1
- IC50 (second compound 0.0316 µM): > 10 µM
- IC50 (second compound 0.1 µM): > 10 µM
- IC50 (second compound 0.316 µM): 3.92 µM
- IC50 (second compound 1 µM): < 0.0316 µM
- IC50 (second compound 3.16 µM): < 0.0316 µM
- IC50 (second compound 10 µM): < 0.0316 µM
- viability, T/C [1]: 101%
- viability, T/C [13]: 76.3%
- viability, T/C [2]: 99.2%
- viability, T/C [14]: 78.7%
- viability, T/C [15]: 89.2%
- viability, T/C [16]: 60.1%
- viability, T/C [3]: 88.4%
- viability, T/C [17]: 70.3%
- viability, T/C [4]: 68.4%
- viability, T/C [18]: 81.6%
- viability, T/C [19]: 91.4%
- viability, T/C [20]: 62.2%
- viability, T/C [5]: 66.2%
- viability, T/C [21]: 40%
- viability, T/C [6]: 69.3%
- viability, T/C [22]: 58.6%
- viability, T/C [23]: 58.7%
- viability, T/C [24]: 12.7%
- viability, T/C [7]: 2.66%
- viability, T/C [25]: 3.87%
- viability, T/C [8]: 2.81%
- viability, T/C [26]: 3.06%
- viability, T/C [27]: 2.68%
- viability, T/C [28]: 1.82%
- viability, T/C [9]: 3.12%
- viability, T/C [29]: 3.21%
- viability, T/C [10]: 3.09%
- viability, T/C [30]: 2.69%
- viability, T/C [31]: 2.86%
- viability, T/C [32]: 1.68%
- viability, T/C [11]: 2.87%
- viability, T/C [33]: 3.1%
- viability, T/C [12]: 3.6%
- viability, T/C [34]: 2.65%
- viability, T/C [35]: 2.34%
- viability, T/C [36]: 1.27%

Structure (SMILES): C=CCn1c(=O)c2cnc(Nc3ccc(N4CCN(C)CC4)cc3)nc2n1-c1cccc(C(C)(C)O)n1 + Cc1cnc(CNC(=O)c2c(=O)c3ccc(N4CCCN(C)CC4)nc3n3c2sc2ccccc23)cn1
- IC50 (second compound 0.0316 µM): 0.0451 µM
- IC50 (second compound 0.1 µM): < 0.0316 µM
- IC50 (second compound 0.316 µM): < 0.0316 µM
- IC50 (second compound 1 µM): < 0.0316 µM
- IC50 (second compound 3.16 µM): < 0.0316 µM
- IC50 (second compound 10 µM): < 0.0316 µM
- viability, T/C [1]: 59%
- viability, T/C [13]: 29.8%
- viability, T/C [2]: 5.19%
- viability, T/C [14]: 2.29%
- viability, T/C [15]: 2.42%
- viability, T/C [16]: 1.97%
- viability, T/C [3]: 23.5%
- viability, T/C [17]: 18%
- viability, T/C [4]: 4.3%
- viability, T/C [18]: 2.46%
- viability, T/C [19]: 2.38%
- viability, T/C [20]: 2.57%
- viability, T/C [5]: 16.9%
- viability, T/C [21]: 9.27%
- viability, T/C [6]: 4.48%
- viability, T/C [22]: 2.42%
- viability, T/C [23]: 2.95%
- viability, T/C [24]: 2.48%
- viability, T/C [7]: 9.95%
- viability, T/C [25]: 9.65%
- viability, T/C [8]: 3.88%
- viability, T/C [26]: 3.14%
- viability, T/C [27]: 3.18%
- viability, T/C [28]: 3.24%
- viability, T/C [9]: 11.6%
- viability, T/C [29]: 7.96%
- viability, T/C [10]: 4.12%
- viability, T/C [30]: 3.52%
- viability, T/C [31]: 3.96%
- viability, T/C [32]: 3.47%
- viability, T/C [11]: 7.24%
- viability, T/C [33]: 6.29%
- viability, T/C [12]: 4.68%
- viability, T/C [34]: 3.1%
- viability, T/C [35]: 4.62%
- viability, T/C [36]: 2.93%
